Source: US12594263B2, “CBL inhibitors and compositions for expansion of immune cells” (Nurix Therapeutics, Inc., priority 2019, dated 2026)

Test system: E.G7-OVA tumors
Test: Oral Cbl inhibitor treatment of mice given expanded OT-1 cells
Assay type: in vivo, mouse
Method: Tumor volume was measured roughly every five days after cell transfer.
OT-1 cells were assessed in mouse blood 5 days and 20 days after transfer.

[1] = 5 days and 20 days after transfer (FIGS. 20A, 20B)

## C[C@H]1CCCN(Cc2cc3c(c(C(F)(F)F)c2)CN(c2cccc([C@]4(c5nncn5C)C[C@@H](C)C4)c2)C3=O)C1 [Compound 116]
[1]
  Frequency of OT-1 cells in mouse blood: increased frequency of OT-1 cells
  Persistence of OT-1 cells in mouse blood: longer persistence of OT-1 cells
Oral administration (FIG. 18)
  Anti-tumor efficacy of OT-1 cells expanded with compound 103 plus IL-2 (tumor volume): enhanced the anti-tumor efficacy
Oral administration (FIG. 19)
  Survival of mice treated with OT-1 cells expanded with compound 103 plus IL-2: enhanced survival
